From patent US6150373A, “Bicyclic nitrogen heterocycles” (Hoffmann-La Roche Inc., priority 1998, dated 2000)
Structures can show the parent of a compound that is named as a salt.

Target: human recombinant p56^lck (Homo sapiens, UniProt P06239)
Assay: Inhibition of T-cell tyrosine kinase p56^lck (incorporation of 33P from [γ-^33 P] ATP into peptide substrate)
Type: biochemical
Settings: 10 μM ATP, 20 μM peptide substrate, 30° C., 60 minutes, pH 7.5
Text: As mentioned earlier, the compounds of formula I, the pharmaceutically acceptable salts of basic compounds of formula I with acids, and the pharmaceutically acceptable salts of acidic compounds of formula I with bases, are all inhibitors of the T-cell tyrosine kinase p56^lck which will down-regulate T-cell activation leading to immunosuppression and decrease inflammation. Therefore, the compounds of the invention are anti-inflammatory agents which can be used in combating the inflammatory condition which occurs in various diseases, as well as immunosuppressives which can be used, for example, for preventing graft rejection in transplantation therapy.
Reaction mixtures (25 μl) containing human recombinant p56^lck, 10 mM MnCl2, 10-μM ATP, 0.2 mM sodium vanadate, 20 μM peptide substrate (AlaGluGluGluIleTyr-GlyGlu-PheGluAlaLysLysLysLys, [γ-^33 P] ATP (1000-2000 cpm/pmol) in 25 mM HEPES buffer (pH 7.5) and 0.1% Triton X-100 are incubated at 30° C. for 60 minutes and the reaction is then stopped by the addition of 10 μl of 2% orthophosphoric acid. Radiolabelled peptide is separated from unreacted [γ-^33 P] ATP by filtration through Millipore Multiscreen phosphocellulose cation exchange paper filters. Bound peptide is washed with 0.5% orthophosphoric acid and incorporated radioactivity is determined by scintillation spectrometry.
The degree of enzyme blockade at each concentration of test compound is calculated from the following equation: [formula]
The IC50 value is that concentration of test compound which reduces by 50% the protein kinase-induced incorporation of the radiolabel under the test conditions described earlier.

Chain of human recombinant p56^lck (P06239 whole entry): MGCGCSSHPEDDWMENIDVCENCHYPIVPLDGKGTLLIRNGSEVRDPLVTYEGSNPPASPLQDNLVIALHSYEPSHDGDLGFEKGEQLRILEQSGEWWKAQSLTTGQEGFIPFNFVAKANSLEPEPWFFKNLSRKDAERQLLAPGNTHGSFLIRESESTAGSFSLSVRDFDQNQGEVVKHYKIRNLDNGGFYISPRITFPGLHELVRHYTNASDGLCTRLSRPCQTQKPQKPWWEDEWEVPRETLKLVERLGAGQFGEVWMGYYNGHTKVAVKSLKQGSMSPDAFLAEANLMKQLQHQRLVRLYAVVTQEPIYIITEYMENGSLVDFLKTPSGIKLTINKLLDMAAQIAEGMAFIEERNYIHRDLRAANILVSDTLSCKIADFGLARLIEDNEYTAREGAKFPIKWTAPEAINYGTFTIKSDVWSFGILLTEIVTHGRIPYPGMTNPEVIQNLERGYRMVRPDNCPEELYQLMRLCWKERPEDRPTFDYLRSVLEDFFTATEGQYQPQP

Compound `CCN(CC)CCOc1ccc(Nc2ncc3c(n2)N(C)C(=O)N(c2c(Cl)cccc2Cl)C3)cc1` [Example 1, 3-(2,6-dichlorophenyl)-7-[4-[2-(diethylamino)ethoxy]anilino]-3,4-dihydro-1-methylpyrimido[4,5-d]pyrimidin-2(1H)-one] has an IC50 of 10 nM.
For `CCN(CC)CCOc1ccc(Nc2ncc3c(n2)N(c2ccccc2)C(=O)N(c2c(Cl)cccc2Cl)C3)cc1` [Example 7, 3-(2,6-dichlorophenyl)-7-[4-[2-(diethylamino)ethoxy]anilino]-3,4-dihydro-1-phenylpyrimido[4,5-d]pyrimidin-2(1H)-one], the IC50 was 0.6 nM.
Work on `CCN(CC)CCOc1ccc(Nc2ncc3c(n2)N(Cc2cccnc2)C(=O)N(c2c(Cl)cccc2Cl)C3)cc1` [Example 10, 3-(2,6-dichlorophenyl)-7-[4-[2-(diethylamino)ethoxy]anilino]-3,4-dihydro-1-[(3-pyridyl)-methyl]pyrimido[4,5-d]pyrimidin-2(1H)-one trifluoroacetate] yielded an IC50 of 19 nM.
In the case of `O=C1N(c2c(Cl)cccc2Cl)Cc2cnc(Nc3ccncc3)nc2N1c1ccccc1` [Example 22, 3-(2,6-dichlorophenyl)-3,4-dihydro-1-phenyl-7-[(4-pyridyl)amino]pyrimido[4,5-d]pyrimidin-2(1H)-one], the IC50 is reported as 265 nM.
For `NCCc1cccc(N2C(=O)N(c3c(Cl)cccc3Cl)Cc3cnc(Nc4ccccc4)nc32)c1` [Example 38, 1-[3-(2-aminoethyl)phenyl]-7-anilino-3-(2,6-dichlorophenyl)-3,4-dihydropyrimido[4,5-d]pyrimidin-2(1H)-one], the IC50 was 0.03 nM.
With `NCCc1cccc(N2C(=O)N(c3ccccc3Br)Cc3cnc(Nc4ccccc4)nc32)c1` [Example 50, 1-[3-(2-aminoethyl)phenyl]-7-anilino-3-(2-bromophenyl)-3,4-dihydropyrimido[4,5-d]pyrimidin-2(1H)-one] the IC50 was 6 nM.
In the case of `O=C1N(c2ccccc2Br)Cc2cnc(Nc3ccccc3)nc2N1c1ccc(CO)cc1` [Example 63, 7-anilino-3-(2-bromophenyl)-3,4-dihydro-1-[4-(hydroxymethyl)phenyl]pyrimido[4,5-d]pyrimidin-2(1H)-one], the IC50 is reported as 17 nM.
With `CCN(CC)CCOc1ccc(Nc2ncc3c(n2)N(c2cccc(CCN(C)C)c2)C(=O)N(c2ccc(Cl)cc2Cl)C3)cc1` [Example 82, 3-(2,4-dichlorophenyl)-7-[4-[2-(diethylamino)ethoxy]anilino]-3,4-dihydro-1-[3-(2-(dimethylamino)ethyl)phenyl]pyrimido[4,5-d]pyrimidin-2(1H)-one] the IC50 was 0.4 nM.
`CCC(CC)(CN)c1cccc(N2C(=O)N(c3c(Cl)cccc3Cl)Cc3cnc(Nc4ccccc4)nc32)c1` [Example 85, 1-[3-(1-aminomethyl-1-ethyl-propyl)-phenyl]-3-(2,6-dichloro-phenyl)-7-phenylamino-3,4-dihydro-pyrimido[4,5-d]pyrimidin-2(1H)-one trifluoroacetate] showed an IC50 of 7 nM.
